Data taken from ChEMBL document CHEMBL1121708, “Synthesis and study of the potential antiallergic activity of some pyrazole derivatives” (1981).

How the values were obtained:
Rattus norvegicus [1] = test: Compound was tested for inhibition of the rat passive cutaneous anaphylaxis (PCA) 1 hr after oral administration; >0<50; assay type: functional; parameters: concentration or dose not given beside the values
Rattus norvegicus [2] = test: Compound was tested for inhibition of the rat passive cutaneous anaphylaxis (PCA) 3h after oral administration; >0<50; assay type: functional; parameters: concentration or dose not given beside the values

SMILES	Inhibition (Rattus norvegicus [1]) [%]	Inhibition (Rattus norvegicus [2]) [%]
Nc1ccc2[nH]ncc2c1	>0	54
CC1Cc2c[nH]nc2-c2ccccc21 (stereo not drawn)	>0	>0
c1ccc2c(c1)CCCc1c[nH]nc1-2	>0	>0
COc1cccc2c1CCc1c[nH]nc1-2	15	>0
c1ccc2c(c1)SCc1cn[nH]c1-2	>0	>0
Oc1ccc2c(c1)-c1n[nH]cc1CC2	>0	>0
c1ccc2c(c1)CCc1c[nH]nc1-2	>0	>0
c1[nH]nc2c1CCC1c3n[nH]cc3CCC21 (stereo not drawn)	77	55
COc1ccc2c(c1)-c1n[nH]cc1CC2	32	>0
c1ccc2c(c1)OCc1cn[nH]c1-2	>0	>0
COc1ccc2c(c1)CCc1c[nH]nc1-2	>0	>0
CCc1cc2c(cc1CC)-c1n[nH]cc1CC2	>0	>0
Oc1ccc2c(c1)CCc1c[nH]nc1-2	>0	>0
Oc1cccc2c1CCc1c[nH]nc1-2	>0	>0
